Where a name gives a salt, the structure may show the parent alone. Read-outs that look alike come from different tables or passages of the source.
How the values were obtained:
[1] = biological target: T1, recombinant human LTA4 hydrolase (rhLTA4H) (Homo sapiens, UniProt P09960); experiment: Recombinant human LTA4 hydrolase assay for LTA4 hydrolase inhibitor activity; assay type: biochemical
T1 construct: made in house; host or cells: Spodoptera frugiperda (Sf-9) cells, baculovirus (pFastBac1)
T1 sequence (P09960 1-611): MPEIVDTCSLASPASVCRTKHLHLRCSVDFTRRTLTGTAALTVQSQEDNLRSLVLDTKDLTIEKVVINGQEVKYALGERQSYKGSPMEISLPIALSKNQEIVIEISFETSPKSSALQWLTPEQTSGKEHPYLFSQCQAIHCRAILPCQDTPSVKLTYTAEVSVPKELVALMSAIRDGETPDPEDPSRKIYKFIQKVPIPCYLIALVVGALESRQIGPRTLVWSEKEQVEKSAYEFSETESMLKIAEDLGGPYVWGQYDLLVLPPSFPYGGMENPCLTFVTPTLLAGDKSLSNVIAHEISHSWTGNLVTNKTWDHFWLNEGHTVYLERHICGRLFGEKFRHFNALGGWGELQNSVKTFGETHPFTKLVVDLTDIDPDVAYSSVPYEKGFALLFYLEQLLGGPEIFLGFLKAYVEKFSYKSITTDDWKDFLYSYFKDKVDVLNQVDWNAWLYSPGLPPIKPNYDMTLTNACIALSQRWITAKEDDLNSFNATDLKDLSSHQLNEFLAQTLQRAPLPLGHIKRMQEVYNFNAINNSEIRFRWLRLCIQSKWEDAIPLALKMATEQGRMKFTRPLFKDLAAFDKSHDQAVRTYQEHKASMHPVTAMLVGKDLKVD
Method in brief: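 Baculovirus/Sf-9-expressed human LTA4H (10 ng) was preincubated 10 min at rt with compound in assay buffer (10% DMSO in compound dilution), then reacted 30 min at rt with LTA4 free acid made from its methyl ester. LTB4 produced was measured by ELISA after dilution; IC50 from non-linear regression, single or averaged determinations.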

[2] = tested on: LTB4 production in murine blood (LTA4H); experiment: LTB4 production by calcium ionophore-stimulated murine blood for LTA4H inhibitor activity; assay type: cell-based, CD-1 mice; settings: Mus musculus
Method in brief: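 Heparinized blood from CD-1 mice was preincubated with compound for 15 min at 37° C, then stimulated with calcium ionophore A23187 (final 7 μg/mL) for 30 min. Centrifugation stopped the reaction, and LTB4 in the supernatant was measured by enzyme immunoassay. Values are single determinations or means of two or more.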

[3] = tested on: arachidonic acid-induced neutrophil influx in murine ear tissue; experiment: Murine arachidonic acid-induced inflammation model: neutrophil influx (myeloperoxidase) in ear; assay type: in vivo, Balb/c mice; settings: Mus musculus, read-out: % Inh. MPO
[4] = tested on: ex vivo calcium ionophore-stimulated LTB4 production in whole blood; experiment: Murine arachidonic acid-induced inflammation model: ex vivo stimulated LTB4 production in blood; design: species or system Balb/c mice; settings: Mus musculus; 30 mg/kg oral gavage; blood diluted 1:1, A23187 stimulated ex vivo; percent inhibition of LTB4 production; read-out: % Inh. LTB4
[5] = rhLTA4H, LTB4 by immunoassay, single determination or average of two or more, mark after value = form tested: ′ free base, ″ hydrochloride, ^ formate, read-out: IC50
[6] = murine blood diluted 1 in 15, A23187 stimulated, single determination or average, mark after value = form tested: ′ free base, ″ hydrochloride, ^ formate, read-out: IC50
[7] = 30 mg/kg oral gavage, 60 min before topical arachidonic acid, ear biopsy after 3 h, percent inhibition of neutrophil influx

CC(=O)N[C@H]1C[C@@H]2C[C@H]1CN2Cc1cc2ccc(Oc3nc4ncccc4s3)cc2o1 [Example 189, (1S,4S,5S)—N-{2-[6-(Thiazolo[4,5-b]pyridin-2-yloxy)-benzofuran-2-ylmethyl]-2-aza-bicyclo[2.2.1]hept-5-yl}-acetamide]
IC50 [1, 5]: 3 nM
IC50 [2, 6]: 70 nM
inhibition at 30 mg/kg [3, 7]: 84%
inhibition at 30 mg/kg [4]: 76%

CC(=O)N1CCN(Cc2coc3cc(Oc4nc5ncccc5s4)ccc23)CC1 [Example 196, 1-{4-[6-(Thiazolo[4,5-b]pyridin-2-yloxy)-benzofuran-3-ylmethyl]-piperazin-1-yl}-ethanone formate]
IC50 [1, 5]: 11 nM
IC50 [2, 6]: 38 nM
inhibition at 30 mg/kg ([3]; Neutrophil): 93%
inhibition at 30 mg/kg [4]: 91%

CC(=O)NC1CCN(Cc2coc3cc(Oc4nc5ncccc5s4)ccc23)CC1 [Example 197, N-{1-[6-(Thiazolo[4,5-b]pyridin-2-yloxy)-benzofuran-3-ylmethyl]-piperidin-4-yl}-acetamide formate]
IC50 [1, 5]: 4 nM
IC50 [2, 6]: 15 nM
inhibition at 30 mg/kg ([3]; Neutrophil): 92%
inhibition at 30 mg/kg [4]: 91%

CCN(CC)Cc1cc2ccc(Oc3nc4ncccc4s3)cc2o1 [Example 198, Diethyl-[6-(thiazolo[4,5-b]pyridin-2-yloxy)-benzofuran-2-ylmethyl]-amine formate]
IC50 [1, 5]: 11 nM
IC50 [2, 6]: 110 nM
inhibition at 30 mg/kg ([3]; Neutrophil): 74%
inhibition at 30 mg/kg [4]: 80%

CC(=O)N[C@@H]1C[C@H]2CC[C@@H](C1)N2Cc1coc2cc(Oc3nc4ncccc4s3)ccc12 [Example 208, meso-exo-N-{8-[6-(Thiazolo[4,5-b]pyridin-2-yloxy)-benzofuran-3-ylmethyl]-8-aza-bicyclo[3.2.1]oct-3-yl}-acetamide]
IC50 [1]: 1 nM
IC50 [2, 6]: 24 nM
inhibition at 30 mg/kg [3, 7]: 92%
inhibition at 30 mg/kg [4]: 93%

NC(=O)N1C[C@@H]2C[C@H]1CN2Cc1coc2cc(Oc3nc4ncccc4s3)ccc12 [Example 209, (1S,4S)-5-[6-(Thiazolo[4,5-b]pyridin-2-yloxy)-benzofuran-3-ylmethyl]-2,5-diaza-bicyclo[2.2.1]heptane-2-carboxylic acid amide formate]
IC50 [1, 5]: 53 nM
IC50 [2, 6]: 54 nM
inhibition at 30 mg/kg ([3]; Neutrophil): 82%
inhibition at 30 mg/kg [4]: 68%

CC(=O)N1CC2CN(Cc3coc4cc(Oc5nc6ncccc6s5)ccc34)CC2C1 (stereo not drawn) [Example 211, meso-1-{5-[6-(Thiazolo[4,5-b]pyridin-2-yloxy)-benzofuran-3-ylmethyl]-hexahydro-pyrrolo[3,4-c]pyrrol-2-yl}-ethanone]
IC50 [1, 5]: 11 nM
IC50 [2, 6]: 13 nM
inhibition at 30 mg/kg [3, 7]: 86%
inhibition at 30 mg/kg [4]: 92%

NC(=O)C1CCN(Cc2coc3cc(Oc4nc5ncccc5s4)ccc23)CC1 [Example 213, 1-[6-(Thiazolo[4,5-b]pyridin-2-yloxy)-benzofuran-3-ylmethyl]-piperidine-4-carboxylic acid amide]
IC50 [1, 5]: 5 nM
IC50 [2, 6]: 25 nM
inhibition at 30 mg/kg [3, 7]: 92%
inhibition at 30 mg/kg [4]: 80%

CNC(=O)C1CCN(Cc2coc3cc(Oc4nc5ncccc5s4)ccc23)CC1 [Example 214, 1-[6-(Thiazolo[4,5-b]pyridin-2-yloxy)-benzofuran-3-ylmethyl]-piperidine-4-carboxylic acid methylamide]
IC50 [1, 5]: 2 nM
IC50 [2, 6]: 19 nM
inhibition at 30 mg/kg [3, 7]: 88%
inhibition at 30 mg/kg [4]: 90%

O=C1CCCN1C1CCN(Cc2coc3cc(Oc4nc5ncccc5s4)ccc23)CC1 [Example 215, 1-{1-[6-(Thiazolo[4,5-b]pyridin-2-yloxy)-benzofuran-3-ylmethyl]-piperidin-4-yl}-pyrrolidin-2-one]
IC50 [1, 5]: 3 nM
IC50 [2, 6]: 21 nM
inhibition at 30 mg/kg [3, 7]: 78%
inhibition at 30 mg/kg [4]: 88%

CC(C)(O)C1CCN(Cc2coc3cc(Oc4nc5ncccc5s4)ccc23)CC1 [Example 218, 2-{1-[6-(Thiazolo[4,5-b]pyridin-2-yloxy)-benzofuran-3-ylmethyl]-piperidin-4-yl}-propan-2-ol]
IC50 [1, 5]: 5 nM
IC50 [2, 6]: 53 nM
inhibition at 30 mg/kg [3, 7]: 98%
inhibition at 30 mg/kg [4]: 83%

CC(C)(C)C(=O)NC1CCN(Cc2cc3ccc(Oc4nc5ncccc5s4)cc3o2)C1 (stereo not shown) [Example 236, 2,2-Dimethyl-N-{1-[6-(thiazolo[4,5-b]pyridin-2-yloxy)-benzofuran-2-ylmethyl]-pyrrolidin-3-yl}-propionamide formate]
IC50 [1, 5]: 60 nM
IC50 [2, 6]: 190 nM
inhibition at 30 mg/kg ([3]; Neutrophil): 34%
inhibition at 30 mg/kg [4]: 39%

CC(=O)N1C[C@@H]2CC[C@H]1CN2Cc1coc2cc(Oc3nc4ncccc4s3)ccc12 [Example 237, (1S,4S)1-{5-[6-(Thiazolo[4,5-b]pyridin-2-yloxy)-benzofuran-3-ylmethyl]-2,5-diaza-bicyclo[2.2.2]oct-2-yl}-ethanone]
IC50 [1, 5]: 2 nM
IC50 [2, 6]: 22 nM
inhibition at 30 mg/kg [3, 7]: 81%
inhibition at 30 mg/kg [4]: 90%

CC(=O)N1CCC(N(Cc2coc3cc(Oc4nc5ncccc5s4)ccc23)C2CC2)CC1 [Example 238, 1-(4-{Cyclopropyl-[6-(thiazolo[4,5-b]pyridin-2-yloxy)-benzofuran-3-ylmethyl]-amino}-piperidin-1-yl)-ethanone]
IC50 [1, 5]: 5 nM
IC50 [2, 6]: 44 nM
inhibition at 30 mg/kg [3, 7]: 77%
inhibition at 30 mg/kg [4]: 93%

NC(=O)N1CCN(Cc2coc3cc(Oc4nc5ncccc5s4)ccc23)CC1 [Example 239, 4-[6-(Thiazolo[4,5-b]pyridin-2-yloxy)-benzofuran-3-ylmethyl]-piperazine-1-carboxylic acid amide]
IC50 [1, 5]: 6 nM
IC50 [2, 6]: 18 nM
inhibition at 30 mg/kg [3, 7]: 90%
inhibition at 30 mg/kg [4]: 71%

NC(=O)NC1CCN(Cc2coc3cc(Oc4nc5ncccc5s4)ccc23)CC1 [Example 240, {1-[6-(Thiazolo[4,5-b]pyridin-2-yloxy)-benzofuran-3-ylmethyl]-piperidin-4-yl}-urea]
IC50 [1, 5]: 5 nM
IC50 [2, 6]: 70 nM
inhibition at 30 mg/kg [3, 7]: 0%
inhibition at 30 mg/kg [4]: 50%

NC(=O)N1C[C@@H]2CC[C@H]1CN2Cc1coc2cc(Oc3nc4ncccc4s3)ccc12 [Example 241, (1S,4S)-5-[6-(Thiazolo[4,5-b]pyridin-2-yloxy)-benzofuran-3-ylmethyl]-2,5-diaza-bicyclo[2.2.2]octane-2-carboxylic acid amide formate]
IC50 [1, 5]: 4 nM
IC50 [2, 6]: 69 nM
inhibition at 30 mg/kg ([3]; Neutrophil): 85%
inhibition at 30 mg/kg [4]: 77%

CS(=O)(=O)NC1CCN(Cc2coc3cc(Oc4nc5ncccc5s4)ccc23)CC1 [Example 244, N-{1-[6-(Thiazolo[4,5-b]pyridin-2-yloxy)-benzofuran-3-ylmethyl]-piperidin-4-yl}-methanesulfonamide]
IC50 [1, 5]: 5 nM
IC50 [2, 6]: 24 nM
inhibition at 30 mg/kg [3, 7]: 89%
inhibition at 30 mg/kg [4]: 80.7%

O=C(O)C1CCN(Cc2coc3cc(Oc4nc5ccccc5s4)ccc23)CC1 [Example 248, 1-[6-(Benzothiazol-2-yloxy)-benzofuran-3-ylmethyl]-piperidine-4-carboxylic acid formate]
IC50 [1, 5]: 12 nM
IC50 [2]: 20 nM
inhibition at 30 mg/kg ([3]; Neutrophil): 90%
inhibition at 30 mg/kg [4]: 83%

c1cnc2nc(Oc3ccc4c(CCN5CCOCC5)coc4c3)sc2c1 [Example 256, 2-[3-(2-Morpholin-4-yl-ethyl)-benzofuran-6-yloxy]-thiazolo[4,5-b]pyridine]
IC50 [1, 5]: 61 nM
IC50 [2, 6]: 260 nM
inhibition at 30 mg/kg [3, 7]: 83%
inhibition at 30 mg/kg [4]: 68.4%

CC(=O)N1CCN(CCc2coc3cc(Oc4nc5ncccc5s4)ccc23)CC1 [Example 257, 1-(4-{2-[6-(Thiazolo[4,5-b]pyridin-2-yloxy)-benzofuran-3-yl]-ethyl}-piperazin-1-yl)-ethanone]
IC50 [1, 5]: 3 nM
IC50 [2, 6]: 169 nM
inhibition at 30 mg/kg [3, 7]: 87%
inhibition at 30 mg/kg [4]: 68.7%

CC(=O)N1C[C@@H]2C[C@H]1CN2CCc1coc2cc(Oc3nc4ncccc4s3)ccc12 [Example 258, (1S,4S)-1-(5-{2-[6-(Thiazolo[4,5-b]pyridin-2-yloxy)-benzofuran-3-yl]-ethyl}-2,5-diaza-bicyclo[2.2.1]hept-2-yl)-ethanone]
IC50 [1, 5]: 22 nM
IC50 [2, 6]: 88 nM
inhibition at 30 mg/kg [3, 7]: 72%
inhibition at 30 mg/kg [4]: 70.9%

From patent publication US8399465B2, “Compounds with two fused bicyclic heteroaryl moieties as modulators of leukotriene A4 hydrolase” (Janssen Pharmaceutica NV, priority 2009, dated 2013)
